Experimental data: patent US8969516B2, “Method of hydrolysis of peptide bond” (priority 2006, dated 2015)

Assay: MALDI-TOF screening of Ni^2+ dependent hydrolysis in a combinatorial peptide library
Assay type: physicochemical
Conditions: CH3CO-Gly-Ala-Thr-X-His-Z-Lys-Phe-Leu-NH2 library, Ni^2+ 2 mM, pH 8.2, 10 mM Tris, score=24/tm
Summary of the method: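 MALDI-TOF read-out: appearance of Ser/Thr-X-His-Z-Lys-Phe-Leu-NH2 product signals, plus loss of substrate signals, checked by eye at 2, 4, 6, 8 h. Conditions: 1 mM peptide mixture, 2 mM Ni2+, 10 mM Tris pH 8.2, 37 or 45 °C.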

Substance	hydrolysis score from MALDI-TOF screening (37° C.)	hydrolysis score from MALDI-TOF screening (45° C.)
Ac-GATFHSKFL-NH2 [TFHS]	0 (a score of 0 if no trace of the product of hydrolysis was seen after 8 hours of incubation)	0 (a score of 0 if no trace of the product of hydrolysis was seen after 8 hours of incubation)
Ac-GATFHTKFL-NH2 [TFHT]	0 (a score of 0 if no trace of the product of hydrolysis was seen after 8 hours of incubation)	0 (a score of 0 if no trace of the product of hydrolysis was seen after 8 hours of incubation)
Ac-GATFHVKFL-NH2 [TFHV]	0 (a score of 0 if no trace of the product of hydrolysis was seen after 8 hours of incubation)	0 (a score of 0 if no trace of the product of hydrolysis was seen after 8 hours of incubation)
Ac-GATFHYKFL-NH2 [TFHY]	0 (a score of 0 if no trace of the product of hydrolysis was seen after 8 hours of incubation)	0 (a score of 0 if no trace of the product of hydrolysis was seen after 8 hours of incubation)
Ac-GATGHAKFL-NH2 [TGHA]	0 (a score of 0 if no trace of the product of hydrolysis was seen after 8 hours of incubation)	0 (a score of 0 if no trace of the product of hydrolysis was seen after 8 hours of incubation)
Ac-GATGHDKFL-NH2 [TGHD]	0 (a score of 0 if no trace of the product of hydrolysis was seen after 8 hours of incubation)	0 (a score of 0 if no trace of the product of hydrolysis was seen after 8 hours of incubation)
Ac-GATGHEKFL-NH2 [TGHE]	0 (a score of 0 if no trace of the product of hydrolysis was seen after 8 hours of incubation)	0 (a score of 0 if no trace of the product of hydrolysis was seen after 8 hours of incubation)
Ac-GATGHGKFL-NH2 [TGHG]	0 (a score of 0 if no trace of the product of hydrolysis was seen after 8 hours of incubation)	0 (a score of 0 if no trace of the product of hydrolysis was seen after 8 hours of incubation)
Ac-GATGHHKFL-NH2 [TGHH]	0 (a score of 0 if no trace of the product of hydrolysis was seen after 8 hours of incubation)	0 (a score of 0 if no trace of the product of hydrolysis was seen after 8 hours of incubation)
Ac-GATGHIKFL-NH2 [TGHI]	0 (a score of 0 if no trace of the product of hydrolysis was seen after 8 hours of incubation)	0 (a score of 0 if no trace of the product of hydrolysis was seen after 8 hours of incubation)
Ac-GATGHKKFL-NH2 [TGHK]	0 (a score of 0 if no trace of the product of hydrolysis was seen after 8 hours of incubation)	0 (a score of 0 if no trace of the product of hydrolysis was seen after 8 hours of incubation)
Ac-GATGHLKFL-NH2 [TGHL]	0 (a score of 0 if no trace of the product of hydrolysis was seen after 8 hours of incubation)	0 (a score of 0 if no trace of the product of hydrolysis was seen after 8 hours of incubation)
Ac-GATGHMKFL-NH2 [TGHM]	0 (a score of 0 if no trace of the product of hydrolysis was seen after 8 hours of incubation)	0 (a score of 0 if no trace of the product of hydrolysis was seen after 8 hours of incubation)
Ac-GATGHNKFL-NH2 [TGHN]	0 (a score of 0 if no trace of the product of hydrolysis was seen after 8 hours of incubation)	0 (a score of 0 if no trace of the product of hydrolysis was seen after 8 hours of incubation)
Ac-GATGHPKFL-NH2 [TGHP]	0 (a score of 0 if no trace of the product of hydrolysis was seen after 8 hours of incubation)	0 (a score of 0 if no trace of the product of hydrolysis was seen after 8 hours of incubation)
Ac-GATGHQKFL-NH2 [TGHQ]	0 (a score of 0 if no trace of the product of hydrolysis was seen after 8 hours of incubation)	0 (a score of 0 if no trace of the product of hydrolysis was seen after 8 hours of incubation)
Ac-GATGHRKFL-NH2 [TGHR]	0 (a score of 0 if no trace of the product of hydrolysis was seen after 8 hours of incubation)	0 (a score of 0 if no trace of the product of hydrolysis was seen after 8 hours of incubation)

Substance	hydrolysis score from MALDI-TOF screening (37° C.)	hydrolysis score from MALDI-TOF screening (45° C.)
Ac-GATGHSKFL-NH2 [TGHS]	0 (a score of 0 if no trace of the product of hydrolysis was seen after 8 hours of incubation)	0 (a score of 0 if no trace of the product of hydrolysis was seen after 8 hours of incubation)
Ac-GATGHTKFL-NH2 [TGHT]	0 (a score of 0 if no trace of the product of hydrolysis was seen after 8 hours of incubation)	0 (a score of 0 if no trace of the product of hydrolysis was seen after 8 hours of incubation)
Ac-GATGHVKFL-NH2 [TGHV]	0 (a score of 0 if no trace of the product of hydrolysis was seen after 8 hours of incubation)	0 (a score of 0 if no trace of the product of hydrolysis was seen after 8 hours of incubation)
Ac-GATGHWKFL-NH2 [TGHW]	0 (a score of 0 if no trace of the product of hydrolysis was seen after 8 hours of incubation)	0 (a score of 0 if no trace of the product of hydrolysis was seen after 8 hours of incubation)
Ac-GATGHYKFL-NH2 [TGHY]	0 (a score of 0 if no trace of the product of hydrolysis was seen after 8 hours of incubation)	0 (a score of 0 if no trace of the product of hydrolysis was seen after 8 hours of incubation)
Ac-GATHHAKFL-NH2 [THHA]	0 (a score of 0 if no trace of the product of hydrolysis was seen after 8 hours of incubation)	4 (a score of 4 for detection at 6 hours)
Ac-GATHHDKFL-NH2 [THHD]	0 (a score of 0 if no trace of the product of hydrolysis was seen after 8 hours of incubation)	0 (a score of 0 if no trace of the product of hydrolysis was seen after 8 hours of incubation)
Ac-GATHHEKFL-NH2 [THHE]	0 (a score of 0 if no trace of the product of hydrolysis was seen after 8 hours of incubation)	0 (a score of 0 if no trace of the product of hydrolysis was seen after 8 hours of incubation)
Ac-GATHHFKFL-NH2 [THHF]	0 (a score of 0 if no trace of the product of hydrolysis was seen after 8 hours of incubation)	6 (a score of 6 for detection at 4 hours)
Ac-GATHHGKFL-NH2 [THHG]	0 (a score of 0 if no trace of the product of hydrolysis was seen after 8 hours of incubation)	4 (a score of 4 for detection at 6 hours)
Ac-GATHHHKFL-NH2 [THHH]	3 (a score of 3 for detection at 8 hours)	4 (a score of 4 for detection at 6 hours)
Ac-GATHHIKFL-NH2 [THHI]	3 (a score of 3 for detection at 8 hours)	12 (a score of 12, if it was seen to be partially hydrolysed at 2 hours)
Ac-GATHHKKFL-NH2 [THHK]	6 (a score of 6 for detection at 4 hours)	12 (a score of 12, if it was seen to be partially hydrolysed at 2 hours)
Ac-GATHHLKFL-NH2 [THHL]	3 (a score of 3 for detection at 8 hours)	12 (a score of 12, if it was seen to be partially hydrolysed at 2 hours)
Ac-GATHHMKFL-NH2 [THHM]	0 (a score of 0 if no trace of the product of hydrolysis was seen after 8 hours of incubation)	4 (a score of 4 for detection at 6 hours)
Ac-GATHHNKFL-NH2 [THHN]	0 (a score of 0 if no trace of the product of hydrolysis was seen after 8 hours of incubation)	0 (a score of 0 if no trace of the product of hydrolysis was seen after 8 hours of incubation)
Ac-GATHHPKFL-NH2 [THHP]	0 (a score of 0 if no trace of the product of hydrolysis was seen after 8 hours of incubation)	0 (a score of 0 if no trace of the product of hydrolysis was seen after 8 hours of incubation)
